Test results from patent US20030170218A1, “Fungicide and method for producing the same” (Biobank Co., Ltd., priority 2002, published 2003).

Experiments:
Trichophyton rubrum = experiment: Agar dilution method, colony growth on sample plate; assay type: cell-based; conditions: T. rubrum, 28° C., 12 days; for Diameter of the colony: 2 mL sample + 18 mL Sabourand agar medium, 5 mm colony disk; for Antifungal activity: 100-[(x-5)/(y-5)x100] vs standard plate, 2 mL sample + 18 mL medium
[1] = test system: Trichophyton mentagrophytes; experiment: as above; assay type: cell-based; conditions: T. mentagrophytes, 28° C., 12 days; for Diameter of the colony: 2 mL sample + 18 mL Sabourand agar medium, 5 mm colony disk; for Antifungal activity: 100-[(x-5)/(y-5)x100] vs standard plate, 2 mL sample + 18 mL medium
pH measurement = assay type: physicochemical; conditions: sample plate: 2 mL sample + 18 mL Sabourand agar medium
Rosellinia necatrix = experiment: Agar dilution method on potato dextrose agar; assay type: cell-based; conditions: 2 mL sample + 18 mL potato dextrose agar
Pythium graminicola = experiment: Agar dilution method on potato dextrose agar; assay type: cell-based; conditions: 2 mL sample + 18 mL potato dextrose agar
Helicobasidium mompa = experiment: Agar dilution method on potato dextrose agar; assay type: cell-based; conditions: 2 mL sample + 18 mL potato dextrose agar
Fusarium oxysporum = experiment: Agar dilution method on potato dextrose agar; assay type: cell-based; conditions: 2 mL sample + 18 mL potato dextrose agar
[2] = test system: enterohemorrhagic E. coli O-157; conditions: Japanese Patent Laid-Open No. 300284/2000; cited from earlier work

Row | Compound | Diameter of the colony (Trichophyton rubrum) | Antifungal activity (Trichophyton rubrum) | Diameter of the colony [1] | Antifungal activity [1] | PH of the Medium (pH measurement) | further results
1 | O=C([O-])c1ccccc1C(=O)O.[K+] [Comp. Ex. 2, potassium hydrogen phthalate] | 21.0 ± 1.5 mm | 58% | 51.1 ± 2.4 mm | 6% | – | –
2 | O=C(O)CC(O)(CC(=O)O)C(=O)O [Comp. Ex. 3, citric acid] | 26.5 ± 1.5 mm | 44% | 14.8 ± 0.7 mm | 80% | – | –
3 | O=C(O)C(=O)O [Comp. Ex. 5, oxalic acid] | 36.5 ± 1.1 mm | 18% | 17.6 ± 0.1 mm | 74% | 4.30 | –
4 | O=C(O)CC(=O)O [Comp. Ex. 6, malonic acid] | 5.5 ± 0.0 mm | 99% | 5.5 ± 0.0 mm | 99% | 2.91 | –
5 | CC(O)C(=O)O (stereo not shown) [Comp. Ex. 7, lactic acid] | 18.0 ± 5.0 mm | 66% | 17.7 ± 1.4 mm | 74% | 3.46 | –
6 | CC(=O)O [Comp. Ex. 8, acetic acid] | 5.4 ± 0.3 mm | 99% | 5.7 ± 0.3 mm | 99% | 4.12 | –
7 | O=C([O-])c1ccccc1C(=O)O.[K+] [Comparative Example 12, potassium hydrogen phthalate] | – | – | – | – | – | Diameter of the colony (Rosellinia necatrix; […]): 70.3 ± 0.0 mm; Antifungal activity (Rosellinia necatrix; vs standard plate): 5%; Diameter of the colony (Pythium graminicola; […]): 13.1 ± 0.6 mm; Antifungal activity (Pythium graminicola; vs standard plate): 88%; Diameter of the colony (Helicobasidium mompa; […]): 8.1 ± 0.7 mm; Antifungal activity (Helicobasidium mompa; vs standard plate): 95%; Diameter of the colony (Fusarium oxysporum; […]): 54.1 ± 4.1 mm; Antifungal activity (Fusarium oxysporum; vs standard plate): 5%
8 | O=C(O)C(O)Cc1ccccc1 (stereo not shown) [phenyllactic acid] | – | – | – | – | – | antibacterial activity [2]: strong antibacterial activity
